Reference: article PMC7576608, “Mechanisms of telomerase inhibition by oxidized and therapeutic dNTPs” (Nature Communications, 2020)

Target: telomerase (Homo sapiens, UniProt O14746)
Assay: Telomerase extension of 32P-end labeled primers with a single dNTP (percent primer extension)
Assay type: biochemical
Parameters: made in house; anti-FLAG immunopurification, eluted with 3xFLAG peptide
Conditions: for Percent Primer Extension: 50 μM single dNTP
Protocol: A chain terminating mechanism of inhibition requires that the enzyme adds the modified dNTP to a growing chain, which then blocks further synthesis. […] To test whether telomerase can incorporate other modified dNTPs, and whether the incorporation is chain terminating and/or mutagenic, we conducted direct extension assays in which we radiolabeled the primer and added increasing concentrations (5, 50, and 500 μM) of a single dNTP (Supplementary Figs. 3, 5, 6, and 7). Since modified dNTPs may prefer mispairing, we tested various primers in which the first template base was either rA3, rC1, or rU5 (primer 1, primer 2, and primer 3, respectively), and compared the percent primer extension for each dNTP at the middle 50 μM concentration (Fig. 3). Primers 1 and 2 initiate synthesis at consecutive rA3rA4 or rC1rC2 template bases, respectively, so we could examine both incorporation and extension to the next base. However, the telomerase template lacks tandem rU residues.
Fig. 3 Telomerase insertion of modified dNTPs. Telomerase reactions were conducted with 5 nM ^32P-end labeled primer a Primer 1 (TTAGGG)3, b Primer 2 (GGTTAG)3, or c Primer 3 (AGGGTT)3. Reactions contained cellular-concentration dNTPs (lane 1) or 50 μM of indicated natural dNTP (blue, lanes 2–5), oxidized dNTP (red, lanes 6–8), or therapeutic dNTP (green, lanes 9–11). Products were separated on denaturing gels. […] Letters on the right indicate the template base; P indicates unextended 18-mer primer. Graphs represent the percent of total primers extended. Images are representative of, and data are shown as mean ± s.d. from, three independent experiments. Source data are provided as a Source Data file.
An equal volume of loading buffer (94% formamide, 0.1× TBE, 0.1% bromophenol blue, 0.1% xylene cyanol) was added to the reaction eluent. The samples were heat denatured for 10 min at 100 °C and loaded onto a 14% denaturing acrylamide gel (7 M urea, 1× TBE) and electrophoresed for 90 min at constant 38 W. Samples were imaged using a Typhoon phosphorimager (GE Healthcare). Percent primer extension was calculated with ImageQuant TL 8.2 by measuring the intensity of each product band and dividing by the total radioactivity in the lane or total products, as indicated in the figure legends.
Telomerase reactions were conducted with 5 nM 32P-end labeled primer (a) Primer 1 (TTAGGG)3, (b) Primer 2 (GGTTAG)3, or (c and d) Primer 3 […]
(d) reactions contained 3 µg/µl RNase A. Products were separated on denaturing gels. Letters on the right indicate the template base; P indicates unextended 18-mer primer. Graphs represent the percent of total primers extended for the reactions in panels a – c from one experiment. Panel d is a representative image from three independent experiments. Source data are provided as a Source Data file. […]
Supplementary Fig 4. Time course reactions with telomerase or pol β. (a, b) Telomerase reactions were conducted with 5 nM 32P-end labeled primer (a) Primer 4 (GTTAGG)3 or (b) Primer 2 (GGTTAG)3.
Products were separated on denaturing gels. Letters on the right indicate the template base; P indicates […]
unextended 18-mer primer. […]

Sequence of telomerase (O14746 whole entry): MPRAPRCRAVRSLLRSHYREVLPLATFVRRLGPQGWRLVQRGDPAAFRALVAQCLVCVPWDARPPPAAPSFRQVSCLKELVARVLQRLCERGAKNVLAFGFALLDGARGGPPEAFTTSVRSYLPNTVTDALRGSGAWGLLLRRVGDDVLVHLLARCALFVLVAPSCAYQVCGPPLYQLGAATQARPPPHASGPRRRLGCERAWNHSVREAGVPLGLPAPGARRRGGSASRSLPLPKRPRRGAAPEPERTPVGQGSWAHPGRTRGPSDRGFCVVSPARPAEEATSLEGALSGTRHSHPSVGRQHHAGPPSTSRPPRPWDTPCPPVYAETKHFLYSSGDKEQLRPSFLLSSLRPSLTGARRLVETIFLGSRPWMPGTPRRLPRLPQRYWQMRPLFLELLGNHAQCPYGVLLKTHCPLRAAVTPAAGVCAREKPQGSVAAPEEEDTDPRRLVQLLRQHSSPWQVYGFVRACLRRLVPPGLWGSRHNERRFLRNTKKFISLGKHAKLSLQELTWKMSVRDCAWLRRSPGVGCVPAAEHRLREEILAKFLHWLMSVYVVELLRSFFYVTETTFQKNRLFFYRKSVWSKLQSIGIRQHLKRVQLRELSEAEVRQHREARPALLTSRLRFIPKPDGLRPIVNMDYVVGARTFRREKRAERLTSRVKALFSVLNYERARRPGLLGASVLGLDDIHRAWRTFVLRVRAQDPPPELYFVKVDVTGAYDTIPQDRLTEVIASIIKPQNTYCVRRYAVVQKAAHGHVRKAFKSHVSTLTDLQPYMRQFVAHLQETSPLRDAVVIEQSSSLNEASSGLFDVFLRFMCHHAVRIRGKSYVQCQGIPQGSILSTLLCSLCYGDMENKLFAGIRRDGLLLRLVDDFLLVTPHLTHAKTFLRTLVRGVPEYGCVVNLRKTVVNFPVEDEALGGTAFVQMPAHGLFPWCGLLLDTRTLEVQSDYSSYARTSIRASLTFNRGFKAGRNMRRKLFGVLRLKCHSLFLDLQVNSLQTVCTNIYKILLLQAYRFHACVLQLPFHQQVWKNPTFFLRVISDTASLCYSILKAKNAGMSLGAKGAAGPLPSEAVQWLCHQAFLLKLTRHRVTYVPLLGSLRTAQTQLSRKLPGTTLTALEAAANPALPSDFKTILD

## O=c1[nH]cnc2c1ncn2C1CCC(COP(=O)(O)OP(=O)(O)OP(=O)(O)O)O1 (stereo not shown) [ddITP]
Primer 1 (TTAGGG)3, first template base rA3, Mean of three experiments
  Percent Primer Extension: 1.59%
Primer 1, 5µM dNTP
  % Primer Extension: 3.46%
Primer 1, 50µM dNTP
  % Primer Extension: 4.29%
Primer 1, 500µM dNTP
  % Primer Extension: 6.73%
Primer 2, 5µM dNTP
  % Primer Extension: 0%
Primer 2, 50µM dNTP
  % Primer Extension: 4.27%
Primer 2, 500µM dNTP
  % Primer Extension: 5.45%
Primer 3 (AGGGTT)3, first template base rU5, Mean of three experiments
  Percent Primer Extension: 0.00%
Primer 3 (AGGGTT)3, first template base rU5, single experiments n1-n3
  Percent Primer Extension: 0.00%
Primer 3, 5µM dNTP
  % Primer Extension: 0%
Primer 3, 50µM dNTP
  % Primer Extension: 0%
Primer 3, 500µM dNTP
  % Primer Extension: 0%
end-labeled primers, single dNTP
  Chain termination after telomerase insertion (in words): genuine telomerase chain terminators
